Data: patent US20120309798A1, “Tumour Treatment Agents and Method” (Vivolux AB, priority 2009, published 2012)
Read-outs that look alike come from different tables or passages of the source.

Tests used:
[1] = system: CCRF-CEM cell line; test: In vivo hollow fiber assay, CCRF-CEM; settings: CCRF-CEM in fibers s.c. in NMRI male mice, single dose 760 μg/mouse s.c., 6 days; P>0.05
Experimental: In vivo studies. Cells from two ovarian carcinoma patients and the cell line CEM were cultured inside semi-permeable polyvinylidene fluoride fibers and assessed by the hollow fiber assay (Friberg et al., 2005; Jonsson et al., 2000). The fibers were implanted subcutaneously into NMRI male mice (Scanbur, Sollentuna Sweden), which were treated with a single dose (0.76 mg/mouse) of VLX50 subcutaneously, or vehicle only (n=animals/group). Fibers were retrieved after 6 days and cell density evaluated (FIG. 3a) using the MTT (3-[4,5-dimethylthiazol-2-yl]-2,5-diphenyltetrazolium bromide)-assay (Alley et al. 1988). The method is based on the conversion of MTT to blue formazan crystals by living cells. The formazan was extracted by DMSO as previously described (Jonsson et al. 2000), and optical density (OD) read at 570 nm. Cell density for each fiber on retrieval day was expressed as net growth, defined as (OD retrieval day—OD implantation day)/OD implantation day, i.e. the percent change in cell density in the fibers during the 6 days of in vivo experiment. The animals were observed regarding behavior and weight gain throughout the experiment. Blood samples (200 μl) were obtained through the orbital plexus after anesthetization with isofluran just before euthanasia, and analyzed for hematological parameters. […]

[2] = system: Assorted tumors: one appendix cancer and one pseudomyxomo peritonei; test: FMCA, patient tumor samples, assorted tumors; format: cell-based; settings: Homo sapiens
Text: (§1) Cell culture. Patient tumor samples (98) and preparations (4) of normal peripheral blood mononuclear cells (PBMC), detailed in Table 1, were used to determine the activity of VLX50 and, for comparison, six other cytotoxic drugs chosen to represent different mechanistic classes.
(§2) The tumor samples were obtained by bone marrow/peripheral blood sampling, routine surgery or diagnostic biopsy. Leukemic cells and PBMCs were isolated by 1.077 g ml-1 Ficoll-Paque centrifugation (Larsson et al., 1992). Tumor tissue from solid tumor samples was minced into small pieces and tumor cells were isolated by collagenase dispersion followed by Percoll density gradient centrifugation (Csoka et al., 1994). […] Cell viability was determined by trypan blue exclusion test and the proportion of tumor cells in the preparation was judged by inspection of May-Grunvald-Giemsa stained cytospin slides (FIG. 1a). […]
(§3) Fluorometric Microculture Cytotoxicity Assay. The Fluorometric Microculture Cytotoxicity Assay, FMCA, described in detail previously (Lindhagen et al., 2008), is based on measurement of fluorescence generated from hydrolysis of fluorescein diacetate (FDA) to fluorescein by cells with intact plasma membranes. […] Quality criteria for a successful assay included a mean coefficient of variation of less than 30% in the control and a fluorescence signal in control wells of more than 5 times the blank. […]

[3] = system: BNIP and Ndrg-1 expression; test: Gene expression analysis of drug treated tumor cell cultures; format: cell-based; settings: HIF1 alfa dependent genes
Experimental: Mechanism of action. Mechanistic exploration was performed using gene expression analysis of drug treated tumor cell cultures to generate a drug specific signature. The breast cancer cell line MCF-7 was treated with VLX50 or vehicle (DMSO) and analyzed for gene expression using the Affymetrix U1300plus chip. […] This query signature was subsequently submitted to the GSEA and the Connectivity map databases and strong connections to hypoxia inducible factor (HIF1 alfa) and iron chelators were retrieved. […] The mechanism was confirmed by direct measurements of drug induced decrease in intracellular iron concentration (FIG. 6b).

[4] = system: solid and hematological patient tumor samples; test: Relative effect on solid and hematological tumor samples (S/H ratio), FMCA; format: cell-based, human; settings: n=98 patient samples; FIG. 2b
Text: as §1, §2, §3

[5] = system: Ovarian carcinoma patient tumor cells (PHTC); test: FMCA, patient tumor samples, ovarian carcinoma; format: cell-based, human
Text: as §1
The tumor samples were obtained by bone marrow/peripheral blood sampling, routine surgery or diagnostic biopsy. Leukemic cells and PBMCs were isolated by 1.077 g ml-1 Ficoll-Paque centrifugation (Larsson et al., 1992). Tumor tissue from solid tumor samples was minced into small pieces and tumor cells were isolated by collagenase dispersion followed by Percoll density gradient centrifugation (Csoka et al., 1994). The sampling of primary tumor cells was approved by the local ethics committee at Uppsala University Hospital. Cell viability was determined by trypan blue exclusion test and the proportion of tumor cells in the preparation was judged by inspection of May-Grunvald-Giemsa stained cytospin slides (FIG. 1a). All samples used in this study contained more than 70% tumor cells.
Fluorometric Microculture Cytotoxicity Assay. The Fluorometric Microculture Cytotoxicity Assay, FMCA, described in detail previously (Lindhagen et al., 2008), is based on measurement of fluorescence generated from hydrolysis of fluorescein diacetate (FDA) to fluorescein by cells with intact plasma membranes. […] The plates were incubated for 72 h and then transferred to an integrated HTS SAIGAN Core System consisting of an ORCA robot (Beckman Coulter) with CO2 incubator (Cytomat 2C, Kendro, Sollentuna, Sweden), dispensor module (Multidrop 384, Titertek, Huntsville, Ala.), washer module (ELx 405, Bio-Tek Instruments Inc), delidding station, plate hotels, barcode reader (Beckman Coulter), liquid handler (Biomek 2000, Beckman Coulter) and a multipurpose reader (FLUOstar Optima, BMG Labtech GmbH, Offenburg, Germany) for automated FMCA. Quality criteria for a successful assay included a mean coefficient of variation of less than 30% in the control and a fluorescence signal in control wells of more than 5 times the blank. […]

[6] = system: Colon cancer patient tumor cells; test: FMCA, patient tumor samples, colon cancer; format: cell-based; settings: Homo sapiens
Text: as §1, §2, §3

[7] = system: Breast cancer patient tumor cells; test: FMCA, patient tumor samples, breast cancer; format: cell-based; settings: Homo sapiens
Text: as §1, §2, §3

IC50 ([2]; n=2, 72 h FMCA, read-out: Median IC50): 7.8 µM
IC50 ([2]; range over n=2 samples, read-out: IC50 Range): 1.6 to 13.3 µM
IC50 ([5]; Homo sapiens, 72 h, n=14, 72 h FMCA, read-out: Median IC50): < 5 µM
IC50 ([5]; Homo sapiens, range over n=14 samples, read-out: IC50 Range): 0.26 to 40 µM
IC50 ([5]; n=14, 72 h FMCA, read-out: Median IC50): 3.46 µM
IC50 ([6]; n=6, 72 h FMCA, read-out: Median IC50): > 40 µM
IC50 ([6]; range over n=6 samples, read-out: IC50 Range): 0.49 to 40 µM
IC50 ([7]; n=7, 72 h FMCA, read-out: Median IC50): 8.23 µM
IC50 ([7]; range over n=7 samples, read-out: IC50 Range): 0.87 to 40 µM
Compound: COCCCNC(=S)N/N=C\c1ccccn1 [VLX50, N1-(3-methoxypropyl)-2-(pyridylmethylidene)-hydrazine-1-carbothioamide]
Difference in net growth between treated group and control group [1]: did not reach statistical significance
Expression of BNIP and Ndrg-1 [3]: significantly increasing
S/H ratio (ratio between total response rates for solid and hematological samples) [4]: 0.73
